Assay [1] deals with Human platelet aggregation caused by ADP. Put plainly: Inhibition of ADP-induced platelet aggregation (Mimic-human PRP). The format is cell-based. The conditions noted are these: 20 μM ADP; for Ki: human platelet concentrate diluted with PPP, absorption at 595 nm. The gist of the method: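 Ki came from non-linear sigmoidal fits of inhibition, measured as the 3-min rise in absorbance at 595 nm after 20 μM ADP, relative to 0/20 μM ADP controls. Platelets (3–4×10^8/mL in PPP-diluted human PRP) were exposed to 0.01–30 μM compound for 20 min at room temperature beforehand.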

Assay [2] deals with T1, Human P2Y12 receptor (Homo sapiens, UniProt Q9H244).
T1 construct: expressed in transfected cells; host or cells: HEK cells
Put plainly: Human P2Y12 receptor cell membrane binding assay with [3H] 2-Mes-ADP. As to conditions: 1 nM [3H] 2-Mes-ADP, membranes of HEK cells expressing P2Y12 receptor; read-out: Binding activity (IC50). A digest of the protocol: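 Competition binding used 1 nM [3H]2-MeS-ADP on P2Y12-expressing HEK cell membranes for 1 h at room temperature, followed by filtration and scintillation counting.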

T1 sequence (Q9H244 whole entry): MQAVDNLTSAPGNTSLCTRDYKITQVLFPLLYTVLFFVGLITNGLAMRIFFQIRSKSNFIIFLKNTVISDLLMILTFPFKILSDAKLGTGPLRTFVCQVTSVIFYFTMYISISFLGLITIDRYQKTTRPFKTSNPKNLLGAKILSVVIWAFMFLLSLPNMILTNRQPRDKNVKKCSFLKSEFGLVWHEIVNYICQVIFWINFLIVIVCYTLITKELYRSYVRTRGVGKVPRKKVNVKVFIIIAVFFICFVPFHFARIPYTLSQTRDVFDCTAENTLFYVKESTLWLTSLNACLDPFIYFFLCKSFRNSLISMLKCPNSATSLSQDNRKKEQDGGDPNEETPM

By Ki is commonly meant a measure of affinity in units of concentration, obtained from inhibition or displacement. Lower therefore signals higher affinity. As a reminder, the IC50 is the concentration at which inhibition is half-maximal. In turn, `CCCc1cc2c(N3CCn4c(nnc4C(F)(F)F)C3)nc(-c3nnn[nH]3)nc2s1` [Example 4-44, 7-[6-Propyl-2-(1H-tetrazol-5-yl)-thieno[2,3-d]pyrimidin-4-yl]-3-trifluoromethyl-5,6,7,8-tetrahydro-[1,2,4]triazolo[4,3-a]pyrazine] showed a Ki in assay [1] of over 4000 nM. Moreover, in assay [2], the half-maximal inhibitory concentration (IC50) amounted to 1600 nM.

Consider `CCCc1cc2c(N3CCn4c(nnc4C(F)(F)F)C3)nc(C3=N[C@H](C(=O)OC)CS3)nc2s1` [Example 4-47, (R)-2-[6-Propyl-4-(3-trifluoromethyl-5,6-dihydro-8H-[1,2,4]triazolo[4,3-a]pyrazin-7-yl)thieno[2,3-d]pyrimidin-2-yl]-4,5-dihydro-thiazole-4-carboxylic acid methyl ester], for which the Ki in assay [1] is 13 nM. Also, in assay [2], the IC50 worked out at 24 nM.

With `CCCc1cc2c(N3CCn4c(nnc4C(F)(F)F)C3)nc(C3=N[C@H](CC(=O)OC(C)C)CS3)nc2s1` [Example 4-48, {(R)-2-[6-Propyl-4-(3-trifluoromethyl-5,6-dihydro-8H-[1,2,4]triazolo[4,3-a]pyrazin-7-yl)thieno[2,3-d]pyrimidin-2-yl]-4,5-dihydro-thiazol-4-yl}acetic acid isopropyl ester], the Ki in assay [1] was 510 nM. Moreover, in assay [2], the IC50 stood at 210 nM.

`CCCc1cc2c(N3CCn4c(nnc4C(F)(F)F)C3)nc(C3=N[C@H](CC(=O)O)CS3)nc2s1` [Example 4-49, {(R)-2-[6-Propyl-4-(3-trifluoromethyl-5,6-dihydro-8H-[1,2,4]triazolo[4,3-a]pyrazin-7-yl)thieno[2,3-d]pyrimidin-2-yl]-4,5-dihydro-thiazol-4-yl}acetic acid] came in with a Ki in assay [1] of 11 nM. In addition, in assay [2], the IC50 was 33 nM.

`CCCc1cc2c(N3CCn4c(nnc4C(F)(F)F)C3)nc(-c3nc(CO)cs3)nc2s1` [Example 4-50, {2-[6-Propyl-4-(3-trifluoromethyl-5,6-dihydro-8H-[1,2,4]triazolo[4,3-a]pyrazin-7-yl)thieno[2,3-d]pyrimidin-2-yl]thiazol-4-yl}methanol]: the affinity in assay [1], expressed as Ki, was 34 nM. The IC50 in assay [2] worked out at 57 nM.

Consider `CCCc1cc2c(N3CCn4c(nnc4C(F)(F)F)C3)nc(-c3nc(CC(=O)OCC)cs3)nc2s1` [Example 4-51, {2-[6-Propyl-4-(3-trifluoromethyl-5,6-dihydro-8H-[1,2,4]triazolo[4,3-a]pyrazin-7-yl)thieno[2,3-d]pyrimidin-2-yl]thiazol-4-yl}acetic acid ethyl ester], for which the affinity in assay [1] corresponds to a Ki of 36 nM. Further, the half-inhibitory concentration (IC50) in assay [2] came out at 40 nM.

The molecule `CCCc1cc2c(N3CCn4c(nnc4C(F)(F)F)C3)nc(-c3nc(CC(=O)O)cs3)nc2s1` [Example 4-52, {2-[6-Propyl-4-(3-trifluoromethyl-5,6-dihydro-8H-[1,2,4]triazolo[4,3-a]pyrazin-7-yl)thieno[2,3-d]pyrimidin-2-yl]thiazol-4-yl}acetic acid] displayed a Ki in assay [1] of 38 nM. Further, in assay [2], the IC50 was 14 nM.

Regarding `CCCc1cc2c(N3CCn4c(nnc4C(F)(F)F)C3)nc(CC(=O)OCC)nc2s1` [Example 4-53, [6-Propyl-4-(3-trifluoromethyl-5,6-dihydro-8H-[1,2,4]triazolo[4,3-a]pyrazin-7-yl)thieno[2,3-d]pyrimidin-2-yl]acetic acid ethyl ester], the Ki in assay [1] was 5250 nM. Besides, the IC50 in assay [2] is 300 nM.

`CCCc1cc2c(N3CCn4c(nnc4C(F)(F)F)C3)nc(CC(=O)O)nc2s1` [Example 4-54, [6-Propyl-4-(3-trifluoromethyl-5,6-dihydro-8H-[1,2,4]triazolo[4,3-a]pyrazin-7-yl)thieno[2,3-d]pyrimidin-2-yl]acetic acid] showed an inhibition constant (Ki) in assay [1] of 470 nM. In addition, the IC50 in assay [2] amounted to 370 nM.

Molecule `CCCc1cc2c(N3CCn4c(nnc4C(F)(F)F)C3)nc(CC(N)=O)nc2s1` [Example 4-55, 2-[6-Propyl-4-(3-trifluoromethyl-5,6-dihydro-8H-[1,2,4]triazolo[4,3-a]pyrazin-7-yl)-thieno[2,3-d]pyrimidin-2-yl]-acetamide] returned a Ki in assay [1] of 4.2 nM. In assay [2], the IC50 stood at 174 nM.

In assay [1], `CCCc1cc2c(N3CCn4c(nnc4C(F)(F)F)C3)nc(CC(N)=S)nc2s1` [Example 4-56, 2-[6-Propyl-4-(3-trifluoromethyl-5,6-dihydro-8H-[1,2,4]triazolo[4,3-a]pyrazin-7-yl)-thieno[2,3-d]pyrimidin-2-yl]-thioacetamide] displayed a Ki of 6.4 nM. In addition, in assay [2], the IC50 turned out to be 170 nM.

For the molecule `CCCc1cc2c(N3CCn4c(nnc4C(F)(F)F)C3)nc(Cc3nc(C(=O)OCC)cs3)nc2s1` [Example 4-57, 2-[6-Propyl-4-(3-trifluoromethyl-5,6-dihydro-8H-[1,2,4]triazolo[4,3-a]pyrazin-7-yl)-thieno[2,3-d]pyrimidin-2-ylmethyl]-thiazole-4-carboxylic acid ethyl ester], in assay [1], the Ki stood at 280 nM. The IC50 in assay [2] came out at 240 nM.

Turning to `CCCc1cc2c(N3CCn4c(nnc4C(F)(F)F)C3)nc(Cc3nc(C(=O)O)cs3)nc2s1` [Example 4-58, 2-[6-Propyl-4-(3-trifluoromethyl-5,6-dihydro-8H-[1,2,4]triazolo[4,3-a]pyrazin-7-yl)-thieno[2,3-d]pyrimidin-2-ylmethyl]-thiazole-4-carboxylic acid], affinity in assay [1] was put at a Ki of 243 nM. For the same molecule, the IC50 in assay [2] stood at 300 nM.

On to `CCCc1cc2c(N3CCn4c(nnc4C(F)(F)F)C3)nc(-c3nc(CCO)cs3)nc2s1` [Example 4-59, 2-{2-[6-Propyl-4-(3-trifluoromethyl-5,6-dihydro-8H-[1,2,4]triazolo[4,3-a]pyrazin-7-yl)-thieno[2,3-d]pyrimidin-2-yl]-thiazol-4-yl}-ethanol], for which the Ki in assay [1] was 8.4 nM. In addition, the IC50 in assay [2] was determined as 40 nM.

`CCCc1nc2c(N3CCn4c(nnc4C(F)(F)F)C3)nc(N3CCNC(=O)C3)nc2s1` [Example 5-4, 4-[2-Propyl-7-(3-trifluoromethyl-5,6-dihydro-8H-[1,2,4]triazolo[4,3-a]pyrazin-7-yl)-thiazolo[5,4-d]pyrimidin-5-yl]-piperazin-2-one] yielded a Ki in assay [1] of 57 nM. Besides, the IC50 in assay [2] is 72 nM.

`CCCc1nc2c(N3CCn4c(nnc4C(F)(F)F)C3)nc(N3CC[C@H](N)C3)nc2s1` [Example 5-5, (S)-1-[2-Propyl-7-(3-trifluoromethyl-5,6-dihydro-8H-[1,2,4]triazolo[4,3-a]pyrazin-7-yl)-thiazolo[5,4-d]pyrimidin-5-yl]-pyrrolidin-3-ylamine] had a Ki in assay [1] of 25 nM. Besides, the IC50 in assay [2] was 170 nM.

In assay [1], `CCCc1nc2c(N3CCn4c(nnc4C(F)(F)F)C3)nc(N3CCC[C@H](C(=O)OCC)C3)nc2s1` [Example 5-6, (S)-1-[2-Propyl-7-(3-trifluoromethyl-5,6-dihydro-8H-[1,2,4]triazolo[4,3-a]pyrazin-7-yl)-thiazolo[5,4-d]pyrimidin-5-yl]-piperidine-3-carboxylic acid ethyl ester] yielded a Ki of over 4000 nM. Besides, the IC50 in assay [2] came out at 630 nM.

The molecule `CCCc1nc2c(N3CCn4c(nnc4C(F)(F)F)C3)nc(N3CCC[C@H](C(=O)O)C3)nc2s1` [Example 5-7, (S)-1-[2-Propyl-7-(3-trifluoromethyl-5,6-dihydro-8H-[1,2,4]triazolo[4,3-a]pyrazin-7-yl)-thiazolo[5,4-d]pyrimidin-5-yl]-piperidine-3-carboxylic acid] had a Ki in assay [1] of 38 nM. In assay [2], the IC50 came to 32 nM.

With `CCc1cc2c(N3CCn4c(nnc4C(F)(F)C(F)(F)F)C3)nc(OCC(O)CO)nc2s1` (stereo not drawn) [Example 6-3, 3-[6-Ethyl-4-(3-pentafluoroethyl-5,6-dihydro-8H-[1,2,4]triazolo[4,3-a]pyrazin-7-yl)-thieno[2,3-d]pyrimidin-2-yloxy]-propane-1,2-diol], the Ki in assay [1] came out at 395 nM. Also, in assay [2], the IC50 worked out at 620 nM.

For the molecule `CCCc1cc2c(N3CCn4c(nnc4C(F)(F)C(F)(F)F)C3)nc(N3CCNC(=O)C3)nc2s1` [Example 6-4, 4-[4-(3-Pentafluoroethyl-5,6-dihydro-8H-[1,2,4]triazolo[4,3-a]pyrazin-7-yl)-6-propyl-thieno[2,3-d]pyrimidin-2-yl]-piperazin-2-one], in assay [1], the Ki amounted to 308 nM. The IC50 in assay [2] turned out to be 128 nM.

`CCCc1cc2c(N3CCn4c(nnc4C(F)(F)C(F)(F)F)C3)nc(N3CCNCC3)nc2s1` [Example 6-5, 3-Pentafluoroethyl-7-(2-piperazin-1-yl-6-propyl-thieno[2,3-d]pyrimidin-4-yl)-5,6,7,8-tetrahydro-[1,2,4]triazolo[4,3-a]pyrazine]: in assay [1], the affinity, expressed as Ki, was 940 nM. Besides, in assay [2], the IC50 is 266 nM.

In general, inhibition refers to the relative decrease from the control value, in per cent. Read a low inhibition as little suppression. `CCCc1cc2c(N3CCn4c(nnc4C(F)(F)C(F)(F)F)C3)nc(N3CCN(C)CC3)nc2s1` [Example 6-6, 7-[2-(4-Methyl-piperazin-1-yl)-6-propyl-thieno[2,3-d]pyrimidin-4-yl]-3-pentafluoroethyl-5,6,7,8-tetrahydro-[1,2,4]triazolo[4,3-a]pyrazine] gave an inhibition at 40 µM in assay [1] (Homo sapiens, Platelet, 40 μM compound) of 49%. The IC50 in assay [2] was found to be 315 nM.

For `CCCc1cc2c(N3CCn4c(nnc4C(F)(F)C(F)(F)F)C3)nc(NCCO)nc2s1` [Example 6-7, 2-[4-(3-Pentafluoroethyl-5,6-dihydro-8H-[1,2,4]triazolo[4,3-a]pyrazin-7-yl)-6-propyl-thieno[2,3-d]pyrimidin-2-ylamino]-ethanol], in assay [1], the inhibitory constant (Ki) was found to be 407 nM. The IC50 in assay [2] turned out to be 490 nM.

As to `CCCc1cc2c(N3CCn4c(nnc4C(F)(F)C(F)(F)F)C3)nc(OCC(O)CO)nc2s1` (stereo not drawn) [Example 6-8, 3-[4-(3-Pentafluoroethyl-5,6-dihydro-8H-[1,2,4]triazolo[4,3-a]pyrazin-7-yl)-6-propyl-thieno[2,3-d]pyrimidin-2-yloxy]-propane-1,2-diol], the Ki in assay [1] came to 95 nM. Besides, the IC50 in assay [2] amounted to 130 nM.
